In the NIST ThermoML archive (doi:10.1021/je900482x):

Test: isobaric coefficient of expansion
Settings: Liquid, Microcalorimeter

CCn1cc[n+](C)c1.O=S(=O)([N-]S(=O)(=O)C(F)(F)F)C(F)(F)F
isobaric coefficient of expansion
Settings	5000 kPa	10000 kPa	15000 kPa	20000 kPa	25000 kPa	30000 kPa	35000 kPa	40000 kPa	45000 kPa	50000 kPa
278.15 K	0.00067 1/K	0.000659 1/K	0.000651 1/K	0.000645 1/K	0.000634 1/K	0.000628 1/K	0.000623 1/K	0.000612 1/K	0.000606 1/K	0.0006 1/K
288.15 K	0.000664 1/K	0.000653 1/K	0.000646 1/K	0.00064 1/K	0.000631 1/K	0.000623 1/K	0.000616 1/K	0.000606 1/K	0.000601 1/K	0.000597 1/K
298.15 K	0.000659 1/K	0.000651 1/K	0.000641 1/K	0.000633 1/K	0.000624 1/K	0.000617 1/K	0.000606 1/K	0.0006 1/K	0.000595 1/K	0.000589 1/K
308.15 K	0.000656 1/K	0.000644 1/K	0.000637 1/K	0.000627 1/K	0.000618 1/K	0.000611 1/K	0.000605 1/K	0.000597 1/K	0.000589 1/K	0.000581 1/K
318.15 K	0.000649 1/K	0.000644 1/K	0.000634 1/K	0.000623 1/K	0.000615 1/K	0.000607 1/K	0.000599 1/K	0.00059 1/K	0.000582 1/K	0.000576 1/K
328.15 K	0.000645 1/K	0.000635 1/K	0.000628 1/K	0.00062 1/K	0.000609 1/K	0.000601 1/K	0.000593 1/K	0.000584 1/K	0.000576 1/K	0.00057 1/K
338.15 K	0.000643 1/K	0.000633 1/K	0.000624 1/K	0.000614 1/K	0.000604 1/K	0.000598 1/K	0.000588 1/K	0.000582 1/K	0.000574 1/K	0.000569 1/K
348.15 K	0.00064 1/K	0.000629 1/K	0.00062 1/K	0.000612 1/K	0.000602 1/K	0.000595 1/K	0.000588 1/K	0.000579 1/K	0.000572 1/K	0.000565 1/K

CCCC[n+]1cccc(C)c1.F[B-](F)(F)F [1-butyl-3-methylpyridinium tetrafluoroborate]
isobaric coefficient of expansion
Settings	5000 kPa	10000 kPa	15000 kPa	20000 kPa	25000 kPa	30000 kPa	35000 kPa	40000 kPa	45000 kPa	50000 kPa
278.15 K	0.000607 1/K	0.000601 1/K	0.000596 1/K	0.000591 1/K	0.000584 1/K	0.000581 1/K	0.000576 1/K	0.00057 1/K	0.000566 1/K	0.00056 1/K
288.15 K	0.0006 1/K	0.000593 1/K	0.000588 1/K	0.000585 1/K	0.000581 1/K	0.000575 1/K	0.000569 1/K	0.000564 1/K	0.000562 1/K	0.000558 1/K
298.15 K	0.000594 1/K	0.000589 1/K	0.000582 1/K	0.000577 1/K	0.000572 1/K	0.000566 1/K	0.00056 1/K	0.000556 1/K	0.000551 1/K	0.000549 1/K
308.15 K	0.000588 1/K	0.000582 1/K	0.000576 1/K	0.000569 1/K	0.000563 1/K	0.00056 1/K	0.000555 1/K	0.000551 1/K	0.000545 1/K	0.000541 1/K
318.15 K	0.00058 1/K	0.000578 1/K	0.000573 1/K	0.000565 1/K	0.00056 1/K	0.000554 1/K	0.000551 1/K	0.000545 1/K	0.000539 1/K	0.000535 1/K
328.15 K	0.000575 1/K	0.00057 1/K	0.000568 1/K	0.00056 1/K	0.000554 1/K	0.000549 1/K	0.000545 1/K	0.000539 1/K	0.000535 1/K	0.000531 1/K
338.15 K	0.000571 1/K	0.000567 1/K	0.000562 1/K	0.000554 1/K	0.000549 1/K	0.000545 1/K	0.000539 1/K	0.000536 1/K	0.00053 1/K	0.000529 1/K
348.15 K	0.000568 1/K	0.000562 1/K	0.000557 1/K	0.000554 1/K	0.000548 1/K	0.000542 1/K	0.00054 1/K	0.000534 1/K	0.000529 1/K	0.000526 1/K
